Here are results for one compound from PMC8313270 (Microbial Biotechnology, 2021).

The structures appear in SMILES notation.

The term Km denotes the substrate concentration at which the rate is half of its maximum.

The experiment deals with StdA-His. In words: toxoflavin degradation assay, Lineweaver-Burk plot. Type of experiment: biochemical, Sphingomonas adhaesiva. The note with it: 50 mM sodium phosphate pH 8.0, 5 mM DTT, 28°C, no metal added.

As for `Cn1ncnc2c(=O)n(C)c(=O)nc1-2` [toxoflavin, 1,6‐dimethylpyrimido[5,4‐e]‐1,2,4‐triazine‐5,7(1H,6H) dione], the Km came out at 65 µM.
